Measured values reported in patent US12201671B2, “Polypeptides for treatment of cancer” (Saint Joseph's University, priority 2019, dated 2025).
Where no end group is shown, it is not given here. The star is where a group is joined. Biotin = O=C1N[C@H]2[C@H](CS[C@H]2CCCCC(=O)*)N1

Legend:
[1] = target: T1, c-Jun (Homo sapiens, UniProt P05412); test: Binding kinetics by biolayer interferometry (BLI), Octet HTX; settings: 1:1 model; for koff: read-out: K off, binding to c-Jun; for kon: read-out: K on, binding to c-Jun
T1 construct: purchased Abcam
Description: The binding kinetics of the peptides and full-length recombinant CAPER (R&D Systems, Minneapolis, MN) with the c-Jun (Abcam, Cambridge, MA) were determined using biolayer interferometry (BLI) on the Octet HTX system (Pall ForteBio, Fremont, CA). Amine Reactive 2nd Generation biosensors (cat #18-5092, Pall ForteBio) were activated with 1-Ethyl-3-[3-dimethylaminopropyl] carbodiimide hydrochloride and N-hydroxysulfosuccinimide (EDC/NHS) (Amine Coupling Kit II, Cat #ACK-001-025, Sierra Sensors, Billerica, MA) and conjugated with an anti-his tag antibody. The reaction was then quenched with 1M ethanolamine (Amine Coupling Kit II, Cat #ACK-001-025, Sierra Sensors). His-tagged recombinant c-Jun was then bound to the tips. The peptides were tested at a series of 2-fold dilutions including a buffer blank. The binding of full-length recombinant CAPER was also tested. Association and dissociation steps were performed for 900s each in 1×HBS-EP+ buffer (cat #BR100669, GE Healthcare Lifesciences, Pittsburgh, PA) supplemented with 450 mM NaCl (Sigma). The background was subtracted from each run and kinetics data was analyzed using ForteBio's Data Analysis Software version 10.0.3.1 using a 1:1 model.

[2] = target: T2, Estrogen Receptor α (Homo sapiens, UniProt P03372); test: Binding kinetics (BLI) to Estrogen Receptor α; settings: for koff: read-out: K off, binding to Estrogen Receptor α; for kon: read-out: K on, binding to Estrogen Receptor α
T2 sequence (P03372 1-595): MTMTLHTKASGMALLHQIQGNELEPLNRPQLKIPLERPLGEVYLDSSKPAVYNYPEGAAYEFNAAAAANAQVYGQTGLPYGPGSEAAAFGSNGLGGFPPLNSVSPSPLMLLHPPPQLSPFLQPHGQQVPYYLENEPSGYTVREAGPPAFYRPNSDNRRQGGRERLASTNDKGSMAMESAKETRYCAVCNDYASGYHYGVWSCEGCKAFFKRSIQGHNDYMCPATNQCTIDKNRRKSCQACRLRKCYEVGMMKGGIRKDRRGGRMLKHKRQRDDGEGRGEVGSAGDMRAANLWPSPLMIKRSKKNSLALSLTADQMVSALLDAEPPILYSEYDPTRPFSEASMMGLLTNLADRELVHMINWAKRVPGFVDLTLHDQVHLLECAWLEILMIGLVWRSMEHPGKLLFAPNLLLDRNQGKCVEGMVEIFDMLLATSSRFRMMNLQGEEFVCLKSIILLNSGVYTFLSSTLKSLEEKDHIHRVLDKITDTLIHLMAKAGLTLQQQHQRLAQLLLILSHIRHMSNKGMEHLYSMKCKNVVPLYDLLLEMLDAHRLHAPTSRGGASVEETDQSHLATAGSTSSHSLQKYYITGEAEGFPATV

[3] = target: T3, ERα (Homo sapiens, UniProt P03372); test: Inhibition of full-length recombinant CAPER binding to ERα
T3 sequence (P03372 1-595): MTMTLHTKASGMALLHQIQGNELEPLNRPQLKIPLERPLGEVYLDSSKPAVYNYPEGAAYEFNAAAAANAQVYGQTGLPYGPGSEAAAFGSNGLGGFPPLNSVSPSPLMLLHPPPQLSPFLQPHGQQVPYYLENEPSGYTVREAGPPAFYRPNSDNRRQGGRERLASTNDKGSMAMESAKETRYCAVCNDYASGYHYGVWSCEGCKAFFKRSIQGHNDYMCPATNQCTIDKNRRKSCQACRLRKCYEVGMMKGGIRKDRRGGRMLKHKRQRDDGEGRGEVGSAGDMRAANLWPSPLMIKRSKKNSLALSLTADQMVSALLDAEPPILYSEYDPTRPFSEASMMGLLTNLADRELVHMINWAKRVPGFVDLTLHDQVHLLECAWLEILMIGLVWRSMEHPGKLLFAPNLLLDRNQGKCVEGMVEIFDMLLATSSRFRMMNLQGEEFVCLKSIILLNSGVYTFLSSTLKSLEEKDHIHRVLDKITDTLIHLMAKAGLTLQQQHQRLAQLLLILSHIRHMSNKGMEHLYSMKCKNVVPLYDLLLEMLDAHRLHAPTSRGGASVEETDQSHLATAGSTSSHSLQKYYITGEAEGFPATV

[4] = tested on: BT549 cells; test: Cell count after 7 day treatment; type: cell-based; settings: BT549, 20 μM daily, 7 days, vs DMSO and TAT controls
Description: (§1) MDA-MB-231, BT549, and MCF10A cells were plated onto 10 cm plates at 50,000 cells per plate, 100,000 cells per plate and 25,000 cells, respectively. The cells were allowed to adhere overnight, the next day cells were with 20 μM of CAPER peptides along with a DMSO and TAT only controls. Cells were dosed daily for 7 days. At the end of the 7 day dosing period, floating cells were collected and adherent cells were trypsinized and counted via a hemocytometer.

[5] = tested on: MCF10A cells; test: Cell count after 7 day treatment; type: cell-based; settings: MCF10A non-tumorigenic, 20 μM daily, 7 days, vs DMSO and TAT controls
Description: as §1

[6] = tested on: MDA-MB-231 cells; test: Cell count after 7 day treatment; type: cell-based; settings: MDA-MB-231, 20 μM daily, 7 days, vs DMSO and TAT controls
Description: as §1

[7] = tested on: MCF7 cells; test: Cell count after 7 day treatment with and without estradiol; type: cell-based; settings: MCF7, 20 μM, 7 days, in the presence of estrogen
Description: (§2) MCF7 cells were switched to phenol free DMEM (cat #, 11054-020, Life Technologies), with 10% charcoal stripped FBS (cat #A33821-01, Life Technologies), 24 hrs prior to plating. After the starvation period, the cells were plated onto mm plates at cells/plate and allowed to adhere overnight. The next day cells were dosed with 20 μM of CAPER peptides along with a DMSO and TAT only controls with and without estradiol (E2) (cat #, Sigma). Cells were pre-treated with the peptide 4 hrs before the E2 was added. Cells were dosed daily for 7 days. At the end of the 7 day dosing period, floating cells were collected and adherent cells were trypsinized and counted via a hemocytometer

[8] = tested on: BT549 cells; test: Apoptosis assays (Muse Caspase 3/7 and Annexin V); type: cell-based; settings: BT549, 20 μM, 7 days
Description: (§3) Apoptosis was evaluated using both a Muse Caspase 3/7 kit (cat #MCH100108, EMD Millipore) and Muse Annexin V kit (Millipore cat #). Cells were treated for 7 days as described elsewhere herein, at the end of the 7 day dosing period, floating cells were collected and attached cells were washed 1× with PBS and then trypsinized with 0.05% trypsin. Cells were collected and combined with the floating cells. Cells were then counted and diluted to 20,000 cells/mL. For the caspase assay, 50 μL of cells were then incubated with the Muse Caspase 3/7 reagent at 37° C. for 30 min. After incubation 5 μL of 7-ADD dye was added and incubated for 5 min at room temperature. Cells were then analyzed on the Muse Cell Analyzer (Millipore). For the Annexin V assay, 100 μL of cells was then added to 100 μL of Annexin V reagent for 30 min at room temperature. Cells were then analyzed on the Muse Cell Analyzer (Millipore).

[9] = tested on: MDA-MB-231 cells; test: Apoptosis assays (Muse Caspase 3/7 and Annexin V); type: cell-based; settings: MDA-MB-231, 20 μM, 7 days
Description: as §3

[10] = tested on: MCF10A cells; test: Apoptosis assay (Annexin V); type: cell-based; settings: 20 μM, 7 days, vs DMSO and TAT controls
Description: as §3

[11] = tested on: MCF7 cells; test: Apoptosis assays (Muse Caspase 3/7 and Annexin V); type: cell-based; settings: MCF7, 20 μM, 7 days, in the presence of estrogen
Description: as §2, §3

[12] = tested on: BT549 cells; test: Cell cycle assay, nocodazole synchronized cells; type: cell-based; settings: BT549, 20 μM, 7 days
Description: (§4) MDA-MB-231 and BT549 cells were synchronized using nocodazole (cat #Sigma-Aldrich) for 24 hours. The floating cells were then aspirated off and the plate was rinsed with media to collect the loosely attached cells (G2/M fraction). The cells were then plated as described above. A fraction of the treated cells was processed for cell cycle to confirm synchronization. Cells were then treated for 7 days as described above, at the end of the 7 day dosing period, floating cells were collected and attached cells were washed 1× with PBS and then trypsinized with 0.05% trypsin. Cells were collected and combined with the floating cells. Cells were counted and diluted according to the Muse Cell Cycle Kit (cat #MCH100106, EMD Millipore) instructions and samples were then read on the Muse Cell Analyzer.

[13] = tested on: MDA-MB-231 cells; test: Cell cycle assay, nocodazole synchronized cells; type: cell-based; settings: MDA-MB-231, 20 μM, 7 days
Description: as §4

[14] = target: T1, c-Jun; test: BLI competition assay: full-length CAPER binding to peptide-saturated c-Jun; settings: c-Jun saturated with peptide at 10x KD; compared to CAPER binding without peptide
Description: Competition assays were determined using BLI on the Octet HTX system (Pall ForteBio, Fremont, CA). Amine Reactive 2nd Generation biosensors (cat #18-5092, Pall ForteBio) were activated with 1-Ethyl-3-[3-dimethylaminopropyl] carbodiimide hydrochloride and N-hydroxysulfosuccinimide (EDC/NHS) (Amine Coupling Kit II, Cat #ACK-001-025, Sierra Sensors, Billerica, MA) and conjugated with an anti-his tag antibody. The reaction was then quenched with 1M ethanolamine (Amine Coupling Kit II, Cat #ACK-001-025, Sierra Sensors). Recombinant c-Jun containing a his-tag was then bound to the tips. The peptides were allowed to saturate the receptor at a concentration of 10× the KD of each peptide. After receptor saturation binding of full-length CAPER to the receptor was measured and the signal was compared back to full-length CAPER binding to the receptor in the absence of the peptide. Binding steps were performed for 900s each in 1× HBS-EP+ buffer (cat #BR100669, GE Healthcare Lifesciences, Pittsburgh, PA) supplemented with 450 mM NaCl (Sigma). The background was subtracted from each run and the signal was represented as a % inhibition compared to full-length CAPER binding in the absence of the peptide.

[15] = his-tagged c-Jun on anti-his tips

T1 sequence (P05412 whole entry): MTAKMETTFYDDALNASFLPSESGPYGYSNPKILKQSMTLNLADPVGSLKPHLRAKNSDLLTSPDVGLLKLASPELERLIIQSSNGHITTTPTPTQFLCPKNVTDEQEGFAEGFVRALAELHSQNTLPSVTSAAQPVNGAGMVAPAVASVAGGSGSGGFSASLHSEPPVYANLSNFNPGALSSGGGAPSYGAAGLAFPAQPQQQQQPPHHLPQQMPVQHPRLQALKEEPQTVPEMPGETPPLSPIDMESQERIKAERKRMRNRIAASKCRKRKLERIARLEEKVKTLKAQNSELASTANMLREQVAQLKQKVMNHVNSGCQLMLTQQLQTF

Molecule: Biotin-RLQLMARLAEGTGLQIPPAAQQALQMSGSLAFGAVAEFSFVIDLQ (N-terminus assumed) [CAPER peptide HCC1.4]
- koff [1]: 0.00098 s⁻¹
- kon [1]: 38300 M⁻¹ s⁻¹
- koff [2]: 0.00172 s⁻¹
- kon [2]: 57100 M⁻¹ s⁻¹
- Binding of full-length recombinant CAPER to ERα [3]: alter the binding
- Cell number [4]: significant decrease
- Cell count [5]: no significant change
- Cell number [6]: significant decrease
- Cell number [7]: significant decrease
- Early apoptotic and apoptotic dead cells [8]: significant increase
- Live cells [8]: significant decrease
- Early apoptotic and apoptotic dead cells [9]: significant increase
- Live cells [9]: significant decrease
- Apoptotic cells [10]: no significant change
- Early apoptotic and apoptotic dead cells [11]: significant increase
- Live cells [11]: significant decrease
- Effect on cell cycle [12]: no effect
- Effect on cell cycle [13]: no effect

Molecule: Biotin-RLQLMARLAEGTGLQIPPAAQQALQMSGSLAFGAVADLQTRLSQQ (N-terminus assumed) [CAPER peptide HCC1.3]
- koff [1]: 0.000337 s⁻¹
- kon [1]: 37900 M⁻¹ s⁻¹
- koff [2]: 0.000115 s⁻¹
- kon [2]: 25400 M⁻¹ s⁻¹
- Binding of full-length recombinant CAPER to ERα [3]: alter the binding
- Cell number [4]: significant decrease
- Cell count [5]: no significant change
- Cell number [6]: significant decrease
- Cell number [7]: significant decrease
- Early apoptotic and apoptotic dead cells [8]: significant increase
- Live cells [8]: significant decrease
- Early apoptotic and apoptotic dead cells [9]: significant increase
- Live cells [9]: significant decrease
- Apoptotic cells [10]: no significant change
- Early apoptotic and apoptotic dead cells [11]: significant increase
- Live cells [11]: significant decrease
- Effect on cell cycle [12]: no effect
- Effect on cell cycle [13]: no effect

Molecule: YGRKKRRQRRR [TAT only control, reference compound]
- KD, binding to c-Jun [1, 15]: could not be determined

Molecule: VGDALQGLRLFSTQASIGAQMEQLAAQPLRAGQMLQLAQASPLRT [CAPER scrambled peptide, scrambled control peptide, reference compound]
- KD, binding to c-Jun [1, 15]: could not be determined
- Inhibition of full-length recombinant CAPER binding to c-Jun [14]: no significant change

B1: Recombinant Full-Length CAPER HCC1.3: full-length recombinant CAPER (R&D Systems), isoform HCC1.3 (protein)
chain: MADDIDIEAMLEAPYKKDENKLSSANGHEERSKKRKKSKSRSRSHERKRSKSKERKRSRDRERKKSKSRERKRSRSKERRRSRSRSRDRRFRGRYRSPYSGPKFNSAIRGKIGLPHSIKLSRRRSRSKSPFRKDKSPVREPIDNLTPEERDARTVFCMQLAARIRPRDLEEFFSTVGKVRDVRMISDRNSRRSKGIAYVEFVDVSSVPLAIGLTGQRVLGVPIIVQASQAEKNRAAAMANNLQKGSAGPMRLYVGSLHFNITEDMLRGIFEPFGRIESIQLMMDSETGRSKGYGFITFSDSECAKKALEQLNGFELAGRPMKVGHVTERTDASSASSFLDSDELERTGIDLGTTGRLQLMARLAEGTGLQIPPAAQQALQMSGSLAFGAVADLQTRLSQQTEASALAAAASVQPLATQCFQLSNMFNPQTEEEVGWDTEIKDDVIEECNKHGGVIHIYVDKNSAQGNVYVKCPSIAAAIAAVNALHGRWFAGKMITAAYVPLPTYHNLFPDSMTATQLLVPSRR
- K off, binding to c-Jun [1]: 5.66e-05 s⁻¹
- K on, binding to c-Jun [1]: 312000 M⁻¹ s⁻¹
- Kd [1, 15]: 0.18 nM
- K off, binding to Estrogen Receptor α [2]: 2.34e-05 s⁻¹
- K on, binding to Estrogen Receptor α [2]: 937000 M⁻¹ s⁻¹
